# Test results as given in the NIST ThermoML archive (doi:10.1016/j.jct.2010.04.011).
# ± gives the expanded uncertainty stated by the source.
# Assay: activity coefficient (dimensionless); of the first substance listed, at infinite dilution; xn = mol fraction of the nth substance listed
# Settings: 298 K; 101 kPa; Liquid; Chromatography; x1 = 0
row,activity coefficient,Structure (SMILES)
1,6.9 ± 1.4,C#CCCCCC [1-heptyne] + C[S+](C)[O-]
2,4.1 ± 0.8,C#CCCCC [1-hexyne] + C[S+](C)[O-]
3,10.2 ± 2.1,C#CCCCCCC [1-octyne] + C[S+](C)[O-]
4,14.9 ± 3,C1=CCCCC1 [cyclohexene] + C[S+](C)[O-]
5,63.3 ± 13,C1CCCCCCC1 [cyclooctane] + C[S+](C)[O-]
6,7 ± 1.4,C1=CCCC1 [cyclopentene] + C[S+](C)[O-]
7,49.2 ± 10,CC1CCCCC1 [methylcyclohexane] + C[S+](C)[O-]
8,29.5 ± 6,CC1CCCC1 [methylcyclopentane] + C[S+](C)[O-]

# Second part, the compound before the results:
row,Structure (SMILES),activity coefficient
1,"C1=CC=CCC=C1 [1,3,5-cycloheptatriene] + C[S+](C)[O-]",5.7 ± 1.2
2,"C=CCCC=C [1,5-hexadiene] + CCCCCCCCCCCCCCCC",0.8 ± 0.16
3,"C=CCCC=C [1,5-hexadiene] + C[S+](C)[O-]",11.6 ± 2.4
4,Cc1ccc(C(C)C)cc1 [1-(1-methylethyl)-4-methylbenzene] + C[S+](C)[O-],15.1 ± 3.1
5,C=CC1CC=CCC1 (configuration not stated) [4-ethenylcyclohexene] + C[S+](C)[O-],20.7 ± 4.2
6,ClC(Cl)(Cl)Br [bromotrichloromethane] + C[S+](C)[O-],2.1 ± 0.4
7,ClC(Cl)=C(Cl)Cl [tetrachloroethene] + C[S+](C)[O-],10.5 ± 2.1

# Same assay, conditions: 298 K; Gas; Chromatography; x1 = 0
row,Structure (SMILES),activity coefficient
1,C=CC1CC=CCC1 (configuration not stated) [4-ethenylcyclohexene] + CCCCCCCCCCCCCCCC,0.96 ± 0.19
2,C1CCCCCCC1 [cyclooctane] + CCCCCCCCCCCCCCCC,0.96 ± 0.19
